How the values were obtained:
[1] = Side effects of Gemcitabine: body and muscle weight, serum biochemical and blood cell analysis in KC mice; assay type: in vivo
Excerpt: In the experiment, a 12-week-old LSL-Kras^G12D/−-Pdx-1-Cre (KC) gene transgenic mouse was used to simulate a mouse model of pancreatic cancer. The national laboratory animal center of National Applied Research Laboratories was entrusted to introduce the experimental animals from the Frederick National Laboratory for cancer research, and then conduct breeding, reproducing and embryo freezing, and then the experimental animals are bred in the animal center attached to Chung Shan Medical University in Taichung. The environment for feeding animals is controlled at a room temperature (20 to 23° C.) and in a humidity of 50 to 60%, and the light cycles of day and night are maintained for 12 hours respectively. Experimental animals are allowed to eat and drink freely. All animal experiment procedures were carried out in accordance with the protocol approved by institutional animal care and use committee (IACUC) of Chung Shan Medical University.
In order to induce acute pancreatitis in mice, Caerulein (25 μg/kg/h) were injected into the abdominal cavity of the mice by intraperitoneal (IP) injection every 7 hours 3 days before and 1 day before the experiment. The experimental mice were was divided into 4 groups. The chemotherapeutic drug of Gemcitabine was given with different concentrations (20, 50, 100, 200 mg/kg of body weight), and was administered by intraperitoneal injection for 4 consecutive weeks, once every 3 days, 10 times in total.
Two strains of the Lactobacillus paracasei GMNL-133 and the Lactobacillus reuteri GMNL-89 were used in the experiment, respectively with the ratio of 1:0.1 (1.64×10^7 CFU/0.02 kg of body weight: 1.64×10^6 CFU/0.02 kg of body weight) and the ratio of 1:1 (1.64×10^7 CFU/0.02 kg of body weight: 1.64×10^7 CFU/0.02 kg of body weight). The dosage used is based on that 12.3 times the recommended daily intake per kilogram of body weight for humans is 1 time the dose for mice. The probiotic composition was fed into the stomach of the mice by tube feeding, 5 days a week, once a day, 0.2 mL each time.
In order to study the adverse effects of the Caerulein, the chemotherapeutic drug of the Gemcitabine, and probiotic composition on serum biochemistry and blood cells, blood was collected after cardiac puncture in anesthetized mice, and the blood was immediately sent to Axel Biotechnology Inc. (Taichung) to perform blood tests and serum biochemical analysis.

[2] = system: advanced pancreatic cancer; conditions: first-line chemotherapy for advanced pancreatic cancer; background statement; cited from earlier work
[3] = system: BXPC-3 pancreatic cancer cells; assay: MTT test, Experiment 2: BXPC-3 cells treated with probiotic lysates combined with Gemcitabine; assay type: cell-based; conditions: Gemcitabine 10 ng/mL alone; cultured 0 to 6 days; FIG. 7A
Description: 2500 BXPC-3 pancreatic cancer cells were seeded into each well of a 96-well plate, and the 96-well plate was incubated at 37° C. overnight. After the old cell culture medium was aspirated, the fresh culture medium containing the lysate of the Lactobacillus reuteri GMNL-89, the lysate of the Lactobacillus paracasei GMNL-133 (25 ug/mL of concentration), or the lysate of the Lactobacillus reuteri GMNL-89 and the Lactobacillus paracasei GMNL-133 (i.e., the probiotic composition of the present disclosure) were respectively mixed with the fresh culture medium containing the chemotherapeutic drug of Gemcitabine (10 ng/mL of concentration) to be added to the BXPC-3 pancreatic cancer cells. Then, the BXPC-3 pancreatic cancer cells were cultured for 0 to 6 days. At different time points, based on day 0, the cell viability rate was determined by the MTT test, and the cell viability rate at different time points was calculated.

[4] = system: Caerulein-treated LSL-KrasG12D/−-Pdx-1-Cre (KC) gene transgenic mice (pancreatic intraepithelial neoplasia lesions); assay: Histological staining (H&E, vimentin and Ki67 immunohistochemistry) of the pancreas in the mouse model of pancreatic cancer; assay type: in vivo; conditions: FIG. 3
Description: After the mice were sacrificed, the pancreas tissue was collected, fixed with formalin solution (TONYAR biotech. Inc., Taiwan), embedded in paraffin, tissue sectioned, and then subjected to H&E staining and immunohistochemical staining. […]

[5] = Caerulein-treated KC mice, Gemcitabine 200 mg/kg alone
[6] = Gemcitabine 20, 50, 100, 200 mg/kg IP alone, compared with untreated mice

Nc1ccn([C@@H]2O[C@H](CO)[C@@H](O)C2(F)F)c(=O)n1 [Gemcitabine]
ALT [1, 5]: 60 U/L | AST [1, 5]: 351 U/L | Body weight [1, 5]: 21.10 ± 1.44 g | Gastrocnemius muscle weight [1, 5]: 0.13 ± 0.00 g | Platelets [1, 5]: 1222.00 K/μL | Red blood cell [1, 5]: 8.70 M/μL | White blood cell [1, 5]: 3.04 K/μL | body weight and muscle (gastrocnemius) weight ([1]; KC mice treated with Caerulein (25 μg/kg), Gemcitabine alone): lose weight and muscle (gastrocnemius) weight significantly | liver function index of AST and ALT ([1]; KC mice treated with Caerulein (25 μg/kg), only Gemcitabine): prone to elevate | 5-year survival rate of patients [2]: 30% | cell viability rate (time of lowest value) [3]: reached the lowest on the sixth day | death of BXPC-3 pancreatic cancer cells (onset) [3]: caused the death of the BXPC-3 pancreatic cancer cells from the second day | tissue staining results at the two high doses ([4]; Gemcitabine 100 mg/kg and 200 mg/kg): excellent results | expressions of the vimentin and the cell proliferation marker of Ki67 [4, 6]: also lower | pancreatic intraepithelial neoplasia lesion grades (H&E staining) [4, 6]: lower than those of the untreated mice

Reference: patent US11969448B2, “Method for improving an effect of chemotherapeutic drug of gemcitabine on inhibiting pancreatic cancer and improving side effect of chemotherapeutic drug of Gemcitabine” (GENMONT BIOTECH INC., priority 2020, dated 2024)
